Biological target: T1, BhTnaA (Blastocystis ST7-B tryptophanase) (Blastocystis hominis, UniProt D8M5A5)
T1 construct: gene GSBLH_T00003147001; pGEX-6P-1, N-terminal GST tag cut with PreScission protease; E. coli BL21
T1 sequence (D8M5A5 1-544): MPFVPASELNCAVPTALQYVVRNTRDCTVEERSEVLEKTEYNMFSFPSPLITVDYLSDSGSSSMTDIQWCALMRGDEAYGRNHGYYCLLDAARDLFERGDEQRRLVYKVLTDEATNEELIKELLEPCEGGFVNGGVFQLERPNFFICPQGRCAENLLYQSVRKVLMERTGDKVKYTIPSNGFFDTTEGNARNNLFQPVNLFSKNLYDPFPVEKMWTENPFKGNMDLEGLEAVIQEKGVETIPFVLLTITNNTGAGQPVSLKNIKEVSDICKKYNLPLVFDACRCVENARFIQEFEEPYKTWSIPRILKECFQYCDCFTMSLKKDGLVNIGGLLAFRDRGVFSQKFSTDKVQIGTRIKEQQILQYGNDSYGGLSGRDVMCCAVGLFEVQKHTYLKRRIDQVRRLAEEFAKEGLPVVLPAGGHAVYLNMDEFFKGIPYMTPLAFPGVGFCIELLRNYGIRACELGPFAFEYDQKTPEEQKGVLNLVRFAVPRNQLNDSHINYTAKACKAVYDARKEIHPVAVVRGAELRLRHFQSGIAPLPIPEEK
Assay: indole formation, Ehrlich's reagent, […] nm, Hanes-Woolf plot
Assay type: biochemical
Settings: forward reaction (tryptophan to indole); PLP 0.165 mM; pH 7.5; 37 °C; toluene-layered; exact value only in Fig 4D

Q: For N[C@@H](Cc1c[nH]c2ccccc12)C(=O)O [L-tryptophan], which Km is on record?
A: > 3 mM

From PMC8448343, “Characterisation of novel functionality within the Blastocystis tryptophanase gene” (PLoS Neglected Tropical Diseases, 2021)
